For series [1] the following is noted: compared with 14-membered ring macrolide antibiotics; stated without a test; cited from earlier work.
For series [2], the system named is biofilm formed by periodontal pathogens. In words: biofilm inhibition ratio (inhibiting formation of the biofilm) in a glass vessel. Type of series: cell-based, periodontal pathogens (gram-negative bacteria). To be noted: 1 mg in 100 ml distilled water, added together with the pathogens; read after 24 hours; relative to distilled water alone; FIG. 2. The protocol:
Periodontal pathogens were put in a glass vessel together with a biofilm removing agent containing 1 mg of azithromycin as a medical agent dissolved in 100 ml of distilled water. After lapse of 24 hours, an inhibition ratio of the biofilm to be formed by the periodontal pathogens was examined.
Further, the biofilm inhibition ratio of the biofilm removing agent containing azithromycin according to this invention was evaluated in comparison with the biofilm inhibition ration of each of minocycline, erythromycin, and josamycin. Specifically, each of minocycline, erythromycin, and josamycin was put into a glass vessel together with periodontal pathogens and distilled water. After lapse of 24 hours, the biofilm inhibition ratio of the biofilm formed by the periodontal pathogens was examined.
The content of each of minocycline, erythromycin, and josamycin in the distilled water was equal to that of the biofilm removing agent containing azithromycin.
In FIG. 2, the biofilm inhibition ratio of each of azithromycin, minocycline, erythromycin, and josamycin is a ratio of a part without the biofilm with respect to an entire biofilm formed by the periodontal pathogens in presence of distilled water alone without any antibiotic.

The test system is the same in series [3]. In words: biofilm destruction ratio on a preformed biofilm in a glass vessel. Format: cell-based, periodontal pathogens (gram-negative bacteria). To be noted: 1 mg in 100 ml distilled water; biofilm formed for 24 hours; read after 24 hours; relative to distilled water alone; FIG. 1. The protocol:
Periodontal pathogens were put in a glass vessel and left for 24 hours to form a biofilm. Then, a solution of a biofilm removing agent containing 1 mg of azithromycin as a medical agent dissolved in 100 ml of distilled water was supplied into the glass vessel. After lapse of 24 hours, a destruction ratio of the biofilm formed by the periodontal pathogens was examined. Further, the biofilm destruction ratio of the biofilm removing agent containing azithromycin according to this invention was evaluated in comparison with the biofilm destruction ratio of each of minocycline, erythromycin, and josamycin. Specifically, each of minocycline, erythromycin, and josamycin was supplied together with distilled water into a glass vessel in which the biofilm was formed. After lapse of 24 hours, the destruction ratio of the biofilm formed by the periodontal pathogens was examined. The content of each of minocycline, erythromycin, and josamycin in the distilled water was equal to that of the biofilm removing agent containing azithromycin. […] In FIG. 1, the biofilm destruction ratio by each of azithromycin, minocycline, erythromycin, and josamycin is a ratio of a destroyed or lost part of the biofilm with respect to a biofilm formed by the periodontal pathogens and supplied with distilled water alone without any antibiotic.

For series [4] the following is noted: compared with 14-membered ring macrolide antibiotics; stated without a test; cited from earlier work. This is another data set of the same source.
Series [5] relates to hepatic metabolic enzymes. To be noted: compared with 14-membered ring macrolide antibiotics; stated without a test; cited from earlier work.

Data on four compounds can be found in US20060263305A1, “Biofilm removing agent for removing a biofilm” (priority 2003, published 2006).

The structures appear in SMILES notation.

Take `CC[C@H]1OC(=O)[C@H](C)[C@@H](O[C@H]2C[C@@](C)(OC)[C@@H](O)[C@H](C)O2)[C@H](C)[C@@H](O[C@@H]2O[C@H](C)C[C@H](N(C)C)[C@H]2O)[C@](C)(O)C[C@@H](C)CN(C)[C@H](C)[C@@H](O)[C@]1(C)O` [azithromycin]: the digestive side effect entry in series [1] is “equivalent”. In series [2], the “biofilm inhibition ratio (adhesion prevention ratio of gram-negative bacteria)” value is recorded as “about 45%”. In addition, the “biofilm destruction ratio (destruction ratio of gram-negative bacteria)” value in series [3] is reported as “about 60%”. For the same compound, the “stability against gastric acid” value in series [4] is reported as “considerably stable”. In addition, the “activation of hepatic metabolic enzymes” value in series [5] was “extremely small level”.
As for `CC[C@H]1OC(=O)[C@H](C)[C@@H](O[C@H]2C[C@@](C)(OC)[C@@H](O)[C@H](C)O2)[C@H](C)[C@@H](O[C@@H]2O[C@H](C)C[C@H](N(C)C)[C@H]2O)[C@](C)(O)C[C@@H](C)C(=O)[C@H](C)[C@@H](O)[C@]1(C)O` [erythromycin], the “biofilm inhibition ratio (adhesion prevention ratio of gram-negative bacteria)” value in series [2] is listed as “about 40%”. The “biofilm destruction ratio (destruction ratio of gram-negative bacteria)” value in series [3] is “about 35%”.
For `CO[C@@H]1[C@@H](O[C@@H]2O[C@H](C)[C@@H](O[C@H]3C[C@@](C)(O)[C@@H](OC(=O)CC(C)C)[C@H](C)O3)[C@H](N(C)C)[C@H]2O)[C@@H](CC=O)C[C@@H](C)[C@@H](O)/C=C/C=C/C[C@@H](C)OC(=O)C[C@H]1OC(C)=O` [josamycin], in that order: “about 35%” and “about 25%”.
For `CN(C)c1ccc(O)c2c1C[C@H]1C[C@H]3[C@H](N(C)C)C(O)=C(C(N)=O)C(=O)[C@@]3(O)C(O)=C1C2=O` [minocycline], in that order: “about 23%” and “about 10%”.
